Which pKa (acidic group) does the source give for `O=C1CCC([O-])=C1O` here?
Its pKa is 12.9.

With `C[NH2+]CCCNC(=O)/C=N/O` as the molecule, how does the pKa (acidic group) read?
Its pKa is 8.61.

For `CC(=O)N(C)c1ccccn1`, which pKa (basic group) is on record?
Its pKa is 2.01.

With `CC(C)(C)CNc1ccccc1` as the molecule, how does the pKa (basic group) read?
The pKa was 4.17.

For `CCCCCCCNCc1ccc(C)cc1`, which pKa (basic group) is on record?
The pKa was 10.

With `O=C(O)CSc1ccccc1` as the molecule, how does the pKa (acidic group) read?
The pKa was 3.52.

Which pKa (acidic group) does the source give for `O/N=C/c1ccccc1O` here?
The pKa was 9.21.

What about the pKa (basic group) of the same molecule?
The pKa was 1.37.

With `CC(C)(N)CO` as the molecule, how does the pKa (basic group) read?
Its pKa is 9.74.

Which pKa (acidic group) does the source give for `O=c1cc(-c2ccccc2O)oc2ccccc12` here?
Its pKa is 8.85.

For `CC(C)c1cccc2ccc(O)cc12`, which pKa (acidic group) is on record?
The pKa was 9.52.

For `CC[Se](=O)O`, which pKa (acidic group) is on record?
The pKa was 5.28.

Which pKa (basic group) does the source give for `C[NH2+]Cc1ccccn1` here?
Its pKa is 2.91.

For `Cc1cnncc1C`, which pKa (basic group) is on record?
Its pKa is 4.13.

Which pKa (basic group) does the source give for `O=C([O-])c1cccc2cccnc12` here?
The pKa was 6.99.

Which pKa (basic group) does the source give for `CCN(C(C)C)C(C)C` here?
The pKa was 11.4.

With `COc1ccc2c(c1)nnn2O` as the molecule, how does the pKa (acidic group) read?
Its pKa is 5.07.

With `Cc1cc(-c2ccccc2)nn2c(CN3CCOCC3)cnc12` as the molecule, how does the pKa (basic group) read?
The pKa was 6.01.

For `O=[N+]([O-])c1ccc(C(=S)Nc2ccccc2)cc1`, which pKa (acidic group) is on record?
Its pKa is 9.81.

With `CCCCC1CCCN1C` (centres undefined) as the molecule, how does the pKa (basic group) read?
The pKa was 10.

For `O=C([O-])C1CCN1` (centres undefined), which pKa (basic group) is on record?
The pKa was 9.54.

For `O=C(O)c1csc([N+](=O)[O-])c1`, which pKa (acidic group) is on record?
Its pKa is 3.24.

For `Cc1cccc(I)c1C(=O)O`, which pKa (acidic group) is on record?
Its pKa is 2.7.

Which pKa (basic group) does the source give for `NC(=O)CCCCc1cccnc1` here?
The pKa was 5.6.

Which pKa (acidic group) does the source give for `O=C(O)C(c1ccc(-c2ccccc2)cc1)C(O)c1ccccc1` (centres undefined) here?
Its pKa is 4.25.

For `Nc1nc2c(o1)CCCC2`, which pKa (basic group) is on record?
Its pKa is 5.75.

With `CCOCCn1c(N2CCCN(CCCCn3cc(C(=O)[O-])cn3)CC2)nc2ccccc21` as the molecule, how does the pKa (basic group) read?
The pKa was 8.5.

Which pKa (basic group) does the source give for `Cn1c(CBr)nc2c(O)ccc(O)c21` here?
The pKa was 3.99.

With `NCCc1ccc(Cl)cc1` as the molecule, how does the pKa (basic group) read?
The pKa was 9.66.

With `CC(C)CNC=S` as the molecule, how does the pKa (acidic group) read?
Its pKa is 12.8.

For `C[NH+]1[C@H]2CC=C(C(=O)O)[C@@H]1CC2`, which pKa (acidic group) is on record?
Its pKa is 3.93.

For `S=C(Nc1ccccc1)c1ccc(Cl)cc1`, which pKa (acidic group) is on record?
Its pKa is 10.8.

For `N/C(=N\O)c1ncnc2nc[nH]c12`, which pKa (acidic group) is on record?
Its pKa is 9.4.

Which pKa (acidic group) does the source give for `O=S(=O)(Nc1nccs1)c1ccc(O)cc1` here?
The pKa was 6.

Which pKa (basic group) does the source give for `C1CCN(CC[NH+]2CCCC2)C1` here?
Its pKa is 6.3.

For `O=C1NC(=S)NC12CCCCC2`, which pKa (acidic group) is on record?
The pKa was 8.79.

For `Nc1ncnc([O-])c1N`, which pKa (basic group) is on record?
The pKa was 9.86.

With `CCN(CC)CCCNS(=O)(=O)c1ccc(OC)c(OC)c1OC` as the molecule, how does the pKa (basic group) read?
The pKa was 9.54.

With `N[C@@H]1C[C@@H]1[NH3+]` as the molecule, how does the pKa (basic group) read?
The pKa was 4.2.

For `O=C(O)[C@@H]1O[C@H](Oc2c[nH+]c3ccccc3c2)[C@@H](O)[C@H](O)[C@H]1O`, which pKa (acidic group) is on record?
The pKa was 3.

For `CN(C)CCCN(C)C(=O)/C=N/[O-]`, which pKa (basic group) is on record?
Its pKa is 9.83.

With `Cc1ccc(C(=O)C[n+]2cccc3c4ccccc4ccc32)cc1` as the molecule, how does the pKa (acidic group) read?
The pKa was 11.7.

Which pKa (basic group) does the source give for `Cc1cccc(C)c1NC(=O)CNCC(C)C` here?
Its pKa is 7.83.

Which pKa (basic group) does the source give for `NCC(O)CN` here?
Its pKa is 9.64.

Which pKa (acidic group) does the source give for `O=C(O)C[NH+](CCNS(=O)(=O)c1ccc(CCBr)cc1)CC(=O)O` here?
Its pKa is 2.15.

For `CCN1CCCC1CNS(=O)(=O)c1ccc(OC)c(OC)c1OC` (centres undefined), which pKa (basic group) is on record?
The pKa was 8.7.

With `CN(C)CC(Cl)CCl` (centres undefined) as the molecule, how does the pKa (basic group) read?
The pKa was 7.5.

Which pKa (basic group) does the source give for `c1ccc2c(c1)CCN2` here?
Its pKa is 5.49.

Which pKa (basic group) does the source give for `O=C(/C=N/O)NCCN1CCOCC1` here?
The pKa was 6.19.

Which pKa (basic group) does the source give for `Cc1ccc2cccc(C)c2n1` here?
Its pKa is 4.1.

Which pKa (basic group) does the source give for `CC1=C(CC(C)NCC(O)c2ccc(Cl)cc2)CCC1(C)C` (centres undefined) here?
Its pKa is 8.55.

For `C#CC(C)(C)NC(C)(C)C#C`, which pKa (basic group) is on record?
Its pKa is 6.45.

For `CC[NH+](CC)[C@H]1CCC[C@@H]1N(C)C`, which pKa (basic group) is on record?
Its pKa is 5.76.

For `c1ccc(-c2cnc3c(ccc4cccnc43)c2)cc1`, which pKa (basic group) is on record?
Its pKa is 4.82.

Which pKa (acidic group) does the source give for `CCOc1cc(C)nc(-n2nc(C)cc2O)n1` here?
Its pKa is 7.35.

Which pKa (acidic group) does the source give for `Fc1cc(F)c(F)c(S)c1F` here?
Its pKa is 2.75.

Which pKa (basic group) does the source give for `[O-]c1nccc2c1cnc1ccccc12` here?
The pKa was 11.3.

With `COC(=O)[C@H]1[C@@H]2Cc3c4[nH]c5ccccc5c4cc[n+]3C[C@H]2CC[C@H]1O` as the molecule, how does the pKa (acidic group) read?
Its pKa is 10.7.

With `C[NH2+]CCN(C)CC[NH3+]` as the molecule, how does the pKa (basic group) read?
The pKa was 3.38.

Which pKa (basic group) does the source give for `CCC(O)CN(CC)CC(O)CC` (centres undefined) here?
Its pKa is 9.2.

For `O=C(O)/C=C/CCl`, which pKa (acidic group) is on record?
Its pKa is 4.14.

Which pKa (acidic group) does the source give for `Nc1ncnc2[nH]ncc12` here?
The pKa was 10.8.

And the pKa (basic group)?
The pKa was 4.59.

For `Cc1ccc(N)nc1`, which pKa (basic group) is on record?
The pKa was 7.22.

For `CC(C)=CC[C@@H]1C(=O)C(C(=O)CC(C)C)=C(O)[C@H]1O`, which pKa (acidic group) is on record?
Its pKa is 2.35.

Which pKa (basic group) does the source give for `COc1cc(C)n(-c2ccccc2)n1` here?
The pKa was 1.5.

Which pKa (basic group) does the source give for `C[C@@H]1CNC[C@H](C)N1` here?
The pKa was 9.86.

Which pKa (acidic group) does the source give for `O=C(O)[C@@H]1CCC[C@H](O)C1` here?
Its pKa is 4.6.

For `COC(=O)CC(C)=O`, which pKa (acidic group) is on record?
Its pKa is 10.6.
